Type in all cases: cell-based, human
Assay [1] has as its system NKX6.1/PDX1 double positive cells. The experiment in a line: NKX6.1/PDX1 library screen, early phase (compounds on top of bFGF based PE media, first seven days). The note with it: concentration at which the fraction of NKX6.1/PDX1 double positive cells was enhanced more than 200% compared the PE media. As to the method: Human embryonic stem (hES) cells line SA121 and human induced pluripotent stem cells (hiPSC) chIPS4 (Cellectis) were grown in DEF-CS culture media (Cellectis) in T75 culture flasks.
After 24 hours the cells were washed with RPMI1640 and treated with 100 ng/ml Activin A (Peprotech #120-14E) in RPMI1640. […] Cells were maintained at 37° C. and 5% CO2 in a humidified incubator during the differentiation.
The DE cells were seeded at 200 000/cm^2 in 96 well optical plates (BD Bioscience), and PE differentiation using screening compounds was initiated the following day.
Cells were washed three times with PBS. […] Cells were washed five times and left in 200 μL PBS for imaging.
Imaging was performed using the InCell Analyzer 2000 (GE Healthcare). 4 fields per well with 10× objective were captured. The total cell number based in the DAPI counterstaining and the number of NKX6.1/PDX1 double positive cells was determined using InCell Developer Toolbox 1.8 (GE Healthcare). The fraction of NKX6.1/PDX1 double positive cells was normalized to the benchmark on each plate and the % effect was calculated. Values above 200% effect were categorized as hits.
The compounds within the bioactive library were tested at 1 uM and 0.1 uM. Compounds from the other libraries were tested at 10 uM and 1 uM. In a second candidate based screening approach, small molecules that target the main signalling pathways involved in pancreas development were included.
The library PE screening approach was divided into an early and a late phase (FIG. 1).
In the early phase, compounds were tested on top of the PE media for the first seven days of PE differentiation, and then the differentiation was continued for additional six days using PE media without compounds.
The screen was divided into an early and a late phase (FIG. 1). In the early phase, compounds were tested on top of the PE media for the first seven days of PE differentiation, and then continued for additional six days using PE media without compounds. In the late phase, DE cells were differentiated in the PE media for the first seven days. In the following six days compounds were tested on top of the PE media. Twelve positive control wells (PE media) and 12 negative control wells (PE media without bFGF) were included in each 96 well plate. Media change was performed daily.

The test system is the same in assay [2]. The experiment in a line: Candidate based PE screen 2 (after 4 days hit compound of screen 1, compounds in basal medium for last 10 days). The following applies: cells first exposed to hit compound from screen 1 for 4 days, compounds added for last 10 days; FIG. 5.
Assay [3] has the same test system. The experiment in a line: Candidate based PE screen 1 (compounds in basal medium without bFGF, first eight days). The following applies: compared to benchmark protocol (Ameri et al, 2010); hiPSC and hESC; FIG. 5. As to the method: Pluripotent stem (PS) cells were differentiated into definitive endoderm according to DE protocol (See general methods) and seeded in 96 well plates for screening. The pancreatic endoderm screen was divided into two parts. In screen 1, compounds were added to a basal medium (RPMI1640+0.1% PEST+12% KOSR) the first eight days of PE differentiation. Compounds were tested in 4 different time windows having 2 day increments and then cells were left to continue differentiation for another six days in the bFGF based published protocol (Ameri et al., 2010). In screen 2, cells were first differentiated for 4 days with the hit compounds from screen 1, then screening compounds were added the last 10 days to basal medium.
Human embryonic stem (hES) cells line SA121 and human induced pluripotent stem cells (hiPSC) chIPS4 (Cellectis) were grown in DEF-CS culture media (Cellectis) in T75 culture flasks. […]
Imaging was performed using the InCell Analyzer 2000 (GE Healthcare). […] The total cell number based in the DAPI counterstaining and the number of NKX6.1/PDX1 double positive cells was determined using InCell Developer Toolbox 1.8 (GE Healthcare). The fraction of NKX6.1/PDX1 double positive cells was normalized to the benchmark on each plate and the % effect was calculated. […]

This note sets out measurements from patent US10221392B2, “Generation of pancreatic endoderm from pluripotent stem cells using small molecules” (Novo Nordisk A/S, priority 2012, dated 2019).

Each structure is given as a SMILES string.

In the case of `O=c1cc(-c2cccc3c2Sc2ccccc2S3)oc(N2CCOCC2)c1` [ATM Kinase Inhibitor], the “hit concentration (Concentration)” value in assay [1] turned out to be 10 µM. Still for that read-out and setting: to `NC(=O)c1ccc2[nH]c(-c3ccc(Oc4ccc(Cl)cc4)cc3)nc2c1` [Chk2 Inhibitor II] belongs 10 µM. With `CC1=C2C[C@H]3[C@@H](CC=C4C[C@@H](O)CC[C@@]43C)[C@@H]2CC[C@]12O[C@@H]1C[C@H](C)CN[C@H]1[C@H]2C` [Cyclopamine], in assay [2], the “hit identification, candidate screen 2” value was “hit compounds”. On the same count and under the same terms, the value for `Cc1ccc2nc(NC(=O)CSc3nc4c(c(=O)n3-c3ccccc3)SCC4)sc2c1` [IWP2] was “hit compounds”. With `c1ccc2c(-c3cnn4cc(-c5ccc(N6CCNCC6)cc5)cnc34)ccnc2c1` [LDN-193189], the “hit identification and most effective time window, candidate screen 1” value in assay [3] was “most effective when added for the first 4 days followed by 4 days basal medium”.

As for `Fc1ccc(-c2nc3n(c2-c2ccncc2)CCS3)cc1` [SKF-86002], the “hit concentration (Concentration)” value in assay [1] was 10 µM. On the same count and under the same terms, the value for `COc1ccc(-c2cnc3c(-c4ccsc4)cnn3c2)cc1` [VEGF Receptor 2 Kinase Inhibitor IV] was 10 µM.
